# Counter-ions that a name gives are not always drawn.
# Tested on: Acinetobacter baumannii ATCC17978
# Assay: Antimicrobial susceptibility testing: 90% growth inhibitory concentration (IC90) determination, Iso-Sensitest broth, OD 600 nm
# Type: cell-based
# Conditions: 90% growth inhibitory concentration, Acinetobacter baumannii ATCC17978, Iso-Sensitest broth, OD 600 nm over 16 h; read-out: ATCC 17978 IC90
# Procedure: Antimicrobial Susceptibility Testing:
# 90% Growth Inhibitory Concentration (IC90) Determination
# The in vitro antimicrobial activity of the compounds was determined according to the following procedure:
# The assay used a 10-points Iso-Sensitest broth medium to measure quantitatively the in vitro activity of the compounds against Acinetobacter baumannii ATCC17978 and Acinetobacter baumannii ATCC17961.
# Stock compounds in DMSO were serially twofold diluted (e.g. range from 50 to 0.097 μM final concentration) in 384 wells microtiter plates and inoculated with 49 μl the bacterial suspension in Iso-Sensitest medium to have a final cell concentration of ˜5×10^(5) CFU/ml in a final volume/well of 50 ul/well. Microtiter plates were incubated at 35±2° C.
# Bacterial cell growth was determined with the measurement of optical density at λ=600 nm each 20 minutes over a time course of 16 h. Growth inhibition was calculated during the logarithmic growth of the bacterial cells with determination of the concentration inhibiting 50% (IC50) and 90% (IC90) of the growth.
# Table 1 provides the 90% growth inhibitory concentrations (IC90) in micromoles per liter of the compounds of present invention obtained against the strain Acinetobacter baumannii ATCC17978 and Acinetobacter baumannii ATCC17961.
row,IC90,SMILES
1,110 nM,"CCc1cc(Nc2nccn3c(-c4ccc(OC)c(F)c4F)cnc23)ccc1C(=O)NCCNCCN [Example 64, N-(2-((2-Aminoethyl)amino)ethyl)-4-((3-(2,3-difluoro-4-methoxyphenyl)imidazo[1,2-a]pyrazin-8-yl)amino)-2-ethylbenzamide]"
2,230 nM,COc1ccc(-c2cnc3c(Nc4ccc(C(=O)NCCOCCN)c(C)c4)nccn23)cc1 [Example 77]
3,55 nM,"CCc1cc(Nc2nccn3c(-c4ccc(OCC#N)c(F)c4F)cnc23)ccc1C(=O)NCCOCCN [Example 85, N-[2-(2-aminoethoxy)ethyl]-4-[[3-[4-(cyano-methoxy)-2,3-difluorophenyl]imidazo[1,2-a]pyrazin-8-yl]amino]-2-ethyl-benzamide;2,2,2-trifluoroacetic acid]"
4,180 nM,"CCc1cc(Nc2nccn3c(-c4ccc(Cl)c(F)c4F)cnc23)ccc1C(=O)NCCOCCN [Example 87, N-[2-(2-aminoethoxy)ethyl]-4-[[3-(4-chloro-2,3-difluoro-phenyl)imidazo [1,2-a]pyrazin-8-yl]amino]-2-ethylbenzamide]"

# Same assay, conditions: Acinetobacter baumannii, ATCC17978, 16 h, 90% growth inhibitory concentration, Acinetobacter baumannii ATCC17978, Iso-Sensitest broth, OD 600 nm over 16 h; read-out: ATCC 17978 IC90
row,SMILES,IC90
1,"Cc1cc(Nc2nccn3c(-c4ccc(OC(F)F)cc4)cnc23)ccc1C(=O)NCCOCCNC(=O)CCC(=O)O [Example 78, 4-[2-[2-[[4-[[3-[4-(difluoromethoxy)phenyl]imidazo [1,2-a]pyrazin-8-yl]amino]-2-methylbenzoyl]amino]ethoxy]ethylamino]-4-oxobutanoic acid]",1200 nM
2,"Cc1cc(Nc2nccn3c(-c4ccc(OC(F)F)cc4)cnc23)ccc1C(=O)NCCOCCN=C(N(C)C)N(C)C [Example 79, N-[2-[2-[bis (dimethylamino)methylidene-amino]ethoxy]ethyl]-4-[[3-[4-(difluoro-methoxy)phenyl]imidazo [1,2-a]pyrazin-8-yl]amino]-2-methylbenzamide]",1400 nM
3,"Cc1cc(Nc2nccn3c(-c4ccc(OC(F)F)cc4)cnc23)ccc1C(=O)NCCOCCN1CCC(O)CC1 [Example 81, 4-[[3-[4-(difluoromethoxy)phenyl]imidazo [1,2-a]pyrazin-8-yl]amino]-N-[2-[2-(4-hydroxy-piperidin-1-yl)ethoxy]ethyl]-2-methylbenzamide]",340 nM
4,"Cc1cc(Nc2nccn3c(-c4ccc(OC(F)F)cc4)cnc23)ccc1C(=O)NCCOCCN1CC[C@H]2COC[C@@H]2C1 [Example 82, N-[2-[2-[(3aS, 7aR)-3,3a,4,6,7,7a-hexahydro-1H-furo[3,4-c]pyridin-5-yl]ethoxy]ethyl]-4-[[3-[4-(difluoromethoxy)phenyl]imidazo [1,2-a]pyrazin-8-yl]amino]-2-methylbenzamide]",470 nM
5,"Cc1cc(Nc2nccn3c(-c4ccc(OC(F)F)cc4)cnc23)ccc1C(=O)NCCOCCN1CCC2(COC2)C1 [Example 83, 4-[[3-[4-(difluoromethoxy)phenyl]imidazo [1,2-a]pyrazin-8-yl]amino]-2-methyl-N-[2-[2-(2-oxa-7-azaspiro [3.4]octan-7-yl)ethoxy]ethyl]benzamide]",640 nM
6,"Cc1cc(Nc2nccn3c(-c4ccc(OC(F)F)cc4)cnc23)ccc1C(=O)NCCOCCN1CCC2(CCOCC2)C1 [Example 91, 4-[[3-[4-(difluoromethoxy)phenyl]imidazo [1,2-a]pyrazin-8-yl]amino]-2-methyl-N-[2-[2-(8-oxa-2-azaspiro[4.5]decan-2-yl)ethoxy]ethyl] benzamide]",650 nM

# More lines, now with the values ahead:
row,IC90,SMILES
1,46 nM,"C#CCOc1ccc(-c2cnc3c(Nc4ccc(C(=O)NCCOCCN)c(CC)c4)nccn23)c(F)c1F [Example 69, N-(2-(2-aminoethoxy)ethyl)-4-((3-(2,3-difluoro-4-(prop-2-yn-1-yloxy)phenyl)imidazo[1,2-a]pyrazin-8-yl)amino)-2-ethylbenzamide]"
2,170 nM,"C#CCOc1ccc(-c2cnc3c(Nc4ccc(C(=O)NCCCNCCO)c(CC)c4)nccn23)c(F)c1F [Example 73, 4-[[3-(2,3-difluoro-4-prop-2-ynoxy-phenyl)imidazo[1,2-a]pyrazin-8-yl]amino]-2-ethyl-N-[3-(2-hydroxyethylamino)propyl]benzamide]"
3,46 nM,"COc1ccc(-c2cnc3c(Nc4ccc(C(=O)NCCOCCN)c(CCF)c4)nccn23)c(F)c1F [Example 74, N-[2-(2-aminoethoxy)ethyl]-4-[[3-(2,3-difluoro-4-methoxy-phenyl)imidazo[1,2-a]pyrazin-8-yl]amino]-2-(2-fluoroethyl)benzamide]"
4,720 nM,"COc1ccc(-c2cnc3c(Nc4ccc(C(=O)NCCOCCN5CCOC5=O)c(C)c4)nccn23)cc1 [Example 76, 4-[[3-(4-methoxyphenyl)imidazo[1,2-a]pyrazin-8-yl]amino]-2-methyl-N-[2-[2-(2-oxo-1,3-oxazolidin-3-yl)ethoxy]ethyl] benzamide]"
5,5100 nM,"Cc1cc(Nc2nccn3c(-c4ccc(Cl)c(F)c4F)cnc23)ccc1C(=O)NCCNCCO [Example 80, 4-[[3-(4-chloro-2,3-difluorophenyl)imidazo[1,2-a]pyrazin-8-yl]amino]-N-[2-(2-hydroxy-ethylamino)ethyl]-2-methyl-benzamide; hydrochloride]"
6,50 nM,CCc1cc(Nc2nccn3c(-c4ccc(OC)c(F)c4F)cnc23)ccc1C(=O)NCCOCCN [Example 86]
7,210 nM,"Cc1cc(Nc2nccn3c(-c4ccc(Cl)c(F)c4F)cnc23)ccc1C(=O)NCCOCCN [Example 88, N-[2-(2-aminoethoxy)ethyl]-4-[[3-(4-chloro-2,3-difluorophenyl)imidazo[1,2-a]pyrazin-8-yl]amino]-2-methylbenzamide; hydrochloride]"
8,220 nM,"CCc1cc(Nc2nccn3c(-c4ccc(OC)cc4)cnc23)ccc1C(=O)NCCOCCNCCO [Example 89, 2-ethyl-N-[2-[2-(2-hydroxyethyl-amino)ethoxy]ethyl]-4-[[3-(4-methoxyphenyl)imidazo[1,2-a]pyrazin-8-yl]amino]benzamide]"
9,230 nM,"Cc1cc(Nc2nccn3c(-c4ccc(OC(F)F)cc4)cnc23)ccc1C(=O)NCCOCCN [Example 90, N-[2-(2-aminoethoxy)ethyl]-4-[[3-[4-(difluoro-methoxy)phenyl]imidazo[1,2-a]pyrazin-8-yl]amino]-2-methylbenzamide; hydrochloride]"
10,260 nM,"CCc1cc(Nc2nccn3c(-c4ccc(Cl)c(F)c4F)cnc23)ccc1C(=O)NCCOCCNCCO [Example 92, 4-[[3-(4-chloro-2,3-difluoro-phenyl)imidazo [1,2-a]pyrazin-8-yl]amino]-2-ethyl-N-[2-[2-(2-hydroxyethyl-amino)ethoxy]ethyl]benzamide]"
11,280 nM,"COCC#CCOc1ccc(-c2cnc3c(Nc4ccc(C(=O)NCCOCCN)c(C)c4)nccn23)cc1 [Example 93, N-[2-(2-aminoethoxy)ethyl]-4-[[3-[4-(4-methoxy-but-2-ynoxy)phenyl]imidazo[1,2-a]pyrazin-8-yl]amino]-2-methylbenzamide; formic acid]"

# Same assay, conditions: Acinetobacter baumannii, ATCC17978, 16 h, read-out: ATCC 17978 IC90
row,SMILES,IC90
1,"COc1ccc(-c2cnc3c(Nc4cc(F)c(C(=O)NCCOCCN)c(Cl)c4)nccn23)c(F)c1F [Example 60, dihydrochloride]",91 nM
2,"CCc1cc(Nc2nccn3c(-c4ccc(OC)c(F)c4F)cnc23)ccc1C(=O)NCCOCCOCCN [Example 65, N-(2-(2-(2-Aminoethoxy)ethoxy)ethyl)-4-((3-(2,3-difluoro-4-methoxyphenyl)imidazo[1,2-a]pyrazin-8-yl)amino)-2-ethylbenzamide dihydrochloride]",72 nM
3,"CC#CCOc1ccc(-c2cnc3c(Nc4ccc(C(=O)NCCOCCN)c(C)c4)nccn23)cc1 [Example 67, N-[2-(2-aminoethoxy)ethyl]-4-[[3-(4-but-2-ynoxyphenyl)imidazo[1,2-a]pyrazin-8-yl]amino]-2-methyl-benzamide; 2,2,2-trifluoroacetic acid]",230 nM
4,"Cc1cc(Nc2nccn3c(-c4ccc(OCC#N)c(F)c4)cnc23)ccc1C(=O)NCCOCCN [Example 68, N-[2-(2-aminoethoxy)ethyl]-4-[[3-[4-(cyanomethoxy)-3-fluoro-phenyl]imidazo[1,2-a]pyrazin-8-yl]amino]-2-methyl-benzamide; formic acid]",220 nM
5,"CCc1cc(Nc2nccn3c(-c4ccc(OC)c(F)c4F)cnc23)ccc1C(=O)NCCOCCNCC(=O)O [Example 70, 2-[2-[2-[[4-[[3-(2,3-difluoro-4-methoxy-phenyl)imidazo[1,2-a]pyrazin-8-yl]amino]-2-ethyl-benzoyl]amino]ethoxy]ethylamino]acetic acid; formic acid]",490 nM
6,"CCc1cc(Nc2nccn3c(-c4ccc(OC)c(F)c4F)cnc23)ccc1C(=O)NCCOC(C)(C)CN [Example 71, N-[2-(2-amino-1,1-dimethyl-ethoxy)ethyl]-4-[[3-(2,3-difluoro-4-methoxy-phenyl)imidazo[1,2-a]pyrazin-8-yl]amino]-2-ethyl-benzamide; formic acid]",28 nM
7,"COc1ccc(-c2cnc3c(Nc4ccc(C(=O)NCCOCCN)c(CC(F)F)c4)nccn23)c(F)c1F [Example 75, N-[2-(2-aminoethoxy)ethyl]-2-(2,2-difluoroethyl)-4-[[3-(2,3-difluoro-4-methoxy-phenyl)imidazo[1,2-a]pyrazin-8-yl]amino]benzamide; formic acid]",160 nM

# Reference: patent publication US20230017532A1 (Hoffmann-La Roche Inc., priority 2018, published 2023)
